Test results as given in paper PMC6943751 (The Journal of infectious diseases, 2014).

Molecular target: Neuraminidase (NA) of A/Bethesda/956/2006, NA-R292K (Influenza A virus, UniProt F1KL32, R292K)
Format: biochemical, influenza A(H3N2) virus

**Q.** How did the “Fold-Difference of IC50 compared with the IC50 of WT virus” value turn out when `CCC(CC)[C@H](NC(C)=O)[C@@H]1[C@H](O)[C@@H](C(=O)O)C[C@H]1N=C(N)N` [Peramivir, peramivir] was run?
**A.** The value was 16.27 ± 0.89 (71) fold.

**Q.** What about the IC50 (read-out: IC50, nM ± SD) of the same compound?
**A.** The IC50 was 16.3 nM.
